Results on 8 compounds are retold here after US20140314686A1, “POLYPHENOL/FLAVONOID COMPOSITIONS AND METHODS OF FORMULATING ORAL HYGIENIC PRODUCTS” (API Genesis, LLC, priority 2013, published 2014).

Series [1] in a line: Solubility in PS80 via the thermal processing method (polyphenol/surfactant concentrate). Particulars: for solubility: 20 °C, organic solvent or mixture; for PS80 Solution Temp.: temperature of complete solubilization in PS80. As for the experimental part: The molar ratio of active agent (polyphenol) to solubilizing agent (surfactant) is typically 1:2 to 1:5, and at times much greater, e.g. 1:2 to 1:20 depending on the active agent/surfactant combination.
Apigenin/Polysorbate 80 (PS80) formulations can be made as follows: • Apigenin powder and PS80 are mixed in the ratio from about 5 to 10 wt. % of apigenin to 95 to 90 wt. % PS80.
All solubility tests were conducted with 20 ml of PS80 contained within 80 ml Pyrex glass beakers.

Series [2] can be described thus: Stability of soluble flavone sodium salts in bicarbonate/peroxide dentifrice. Type of series: physicochemical. The note with it: dentifrice with sodium bicarbonate, peroxide and peroxide stabilizer, pH ~10-10.5. As for the experimental part:
It was experimentally determined that the toothpaste formulations containing both sodium bicarbonate and sodium carbonate peroxide together with stabilizing polymer formulations had pHs of ˜10-10.5. When aglycone flavone (i.e., apigenin and luteolin) powders were added to dentifrices including sodium bicarbonate, sodium bicarbonate peroxide and a peroxide stabilizer, it was also determined that soluble flavone sodium salts were formed that were stable in these highly oxidative peroxide compositions. The presence of stable soluble alkali metal flavone salts with highly anti-oxidant and anti-inflammatory properties in an emulsion formulation was totally unanticipated since aglycone flavones are prone to oxidative decomposition.

A short description of series [3]: pH required for a stable aqueous microemulsion with nonionic surfactants. Type of series: physicochemical. The note with it: nonionic surfactants Polysorbate 80 and Cremophor RH40. The text has this: In one embodiment, a flavonoid/polyphenol microemulsion can be made as follows: • The mixing of a flavonoid/polyphenol with an alkali metal component (e.g., alkali metal hydroxide(s) and/or alkaline metal salt(s)) to form an alkali metal flavonoid/polyphenol salt within an aqueous solution. • Adding a surfactant in the ratio from about 5 to 20 wt. % of the flavonoid/polyphenol to 95 to 80 wt. % of a surfactant; preferable a nonionic surfactant. • This mixture is thoroughly stirred to form a uniform clear solution. • Adjusting (e.g., acidifying) the alkali metal flavonoid/polyphenol salt with an agent (e.g., an acidic agent such as acetic acid and/or hydrochloric acid) to a pH level required to form a clear and stable microemulsion.
Stable microemulsions with apigenin and the nonionic surfactants, Polysorbate 80 and Cremophor RH40, were achieved provided a pH level of 8.0 to 8.5 was maintained. For luteolin, it as determined that a pH of 7 was required to maintain a stable aqueous microemulsion; and for resveratrol, a pH of >4.5 to 7.5.

Series [4] in a line: Solubilization in Listerine mouth rinse via sodium salt and pH adjustment. The class given is physicochemical. As for the experimental part:
100 grams of the Listerine® Resveratrol Containing Mouth Rinse formulation was prepared as follows: • 1. 98.4 grams of the Listerine® caramel colored mouth rinse was added to a 300 ml Pyrex glass beaker. […] About 0.2 grams of fine NaOH crystals were added to the mixture from Step 2 and thoroughly mixed. A uniformly caramel colored blend resulted with a measured pH of ˜10. […] The pH the mixture from Step 3 was adjusted to a pH 6.5 by the addition of about 0.2 grams of citric acid crystals. […] • 1. 98.6 grams of the Listerine® caramel colored mouthrinse was added to a 300 ml Pyrex glass beaker. […] About 0.2 grams of fine NaOH crystals were added to the mixture from Step 2 and thoroughly mixed. A uniformly caramel colored blend resulted with a measured pH of ˜10. […] The pH the mixture from Step 2 was adjusted to a pH 8 by the addition of about 0.2 grams of citric acid crystals.

Series [5] in a line: EGCG retention in saliva after brushing with alkaline EGCG toothpaste (colour on alkalizing). The class given is in vivo, human. Particulars: PeroxiCare toothpaste with 0.1 wt. % EGCG and 0.1 wt. % ascorbic acid, saliva after brushing and rinsing.
Description: A saliva sample with an EGCG containing alkaline toothpaste was obtained (1) before brushing and (2) 1 minute after brushing immediately after rinsing. The subject brushed for 2 minutes using the sulcular brushing technique with ˜1.8 gm toothpaste on a toothbrush. […] A 5 ml sample of saliva was collected 10 minutes prior to brushing. Tooth brushing was conducted for 2 minutes with 1.8 gm of toothpaste applied to the brush. One minute after brushing, the oral cavity was rinsed with 50 ml of water. Following rinsing, about 8 ml of saliva was collected. The pH of the saliva was measured. In addition, the saliva samples were further made alkaline with the addition of NaOH crystals and the color of the resulting sample noted.

≈ marks a conversion by molar mass, not a printed value.

Turning to `O=c1c(-c2ccc(O)cc2)coc2cc(O)cc(O)c12` [Genistein], the solubility in series [1] is 50 mg/mL; in “Solubility in water” (20 °C, water), 120 µg/mL (≈ 444 µM). For the same compound, the “PS80 Solution Temp.” value in series [1] is roughly 220 °C.

Turning to `O.Oc1cc(O)c2c(c1)O[C@H](c1ccc(O)c(O)c1)[C@@H](O)C2` [Catechin], in series [1] (at 20° C., 20 ml PS80, not the maximum solubility levels in PS80), the “PS80 Solubility” value was determined as 50 mg/mL. Besides, the “PS80 Solution Temp.” value in series [1] was roughly 210 °C. Besides, the “Water Solubility” value in the series “Solubility in water” (at 20° C.) is roughly 5 mg/mL.

As for `O=c1cc(-c2ccc(O)cc2)oc2cc(O)cc(O)c12` [Apigenin, 4′,5,7,-trihydroxyflavone], in series [1] (5.0 wt. % in PS80, heated approaching 300 degree C, cooled to ambient), the “concentration of stable concentrate in PS80” value was determined as 50 mg/mL. Also, in series [2], the “stability of soluble flavone sodium salt in oxidative peroxide composition” value is on record as “stable”.

Turning to `O=C1C[C@@H](c2ccc(O)cc2)Oc2cc(O)cc(O)c21` [Naringenin], the solubility is 50 mg/mL in series [1] (Polysorbate 80 (PS80)) and 40 µg/mL (≈ 147 µM) in “Solubility in water” (water, 20 °C). For the same compound, the “PS80 Solution Temp.” value in series [1] is roughly 280 °C.

Turning to `O=c1cc(-c2ccc(O)c(O)c2)oc2cc(O)cc(O)c12` [Luteolin, 3′,4′,5,7-tetrahydroxyflavone], the “pH level for a stable aqueous microemulsion” value in series [3] is on record as 7. Moreover, the “concentration in transparent solution” value in series [4] (NaOH to pH ~10, citric acid to pH 8) was determined as 1.5 mg/mL. In addition, the “stability of soluble flavone sodium salt in oxidative peroxide composition” value in series [2] is recorded as “stable”.

Regarding `O=c1cc(-c2ccccc2)oc2cc(O)cc(O)c12` [Chrysin], the solubility in series [1] (Polysorbate 80 (PS80)) came to 50 mg/mL; in “Solubility in water” (water, 20 °C) it was 80 µg/mL (≈ 315 µM). In addition, in series [1], the “PS80 Solution Temp.” value was roughly 140 °C.

As to `O=C(O[C@@H]1Cc2c(O)cc(O)cc2O[C@@H]1c1cc(O)c(O)c(O)c1)c1cc(O)c(O)c(O)c1` [Epigallocatechin Gallate (EGCG), Epigallocatechin gallate], the solubility in series [1] (Polysorbate 80 (PS80)) was 50 mg/mL; in the series “Solubility in water” (water, 20 °C), roughly 25000 µg/mL (≈ 54500 µM). Moreover, in series [1], the “PS80 Solution Temp.” value is roughly 150 °C. Moreover, the “retention in saliva (red/brown color on alkalizing saliva to pH ~10.5)” value in series [5] is listed as “retained”.

As for `Oc1ccc(C=Cc2cc(O)cc(O)c2)cc1` [Resveratrol, resveratrol], the “concentration in transparent solution” value in series [4] (NaOH to pH ~10, citric acid to pH 6.5) amounted to 1.2 mg/mL.
